In US20240424113A1, “CONJUGATES COMPRISING ANTIFUNGALS AND HEAT SHOCK PROTEIN 90 (HSP90) INHIBITORS AND METHODS OF USE THEREOF” (Bright Angel Therapeutics Inc., priority 2021, published 2024):
≈ marks a conversion by molar mass, not a printed value.

How the values were obtained:
[1] = biological target: Hsp90 Nuclear Binding Domain (NBD) (Candida albicans (strain SC5314 / ATCC MYA-2876) (Yeast), UniProt P46598); experiment: Surface Plasmon Resonance (SPR) binding, C. albicans Hsp90 NBD; conditions: biotinylated Hsp90 NBD on streptavidin chip, 25° C., 1:1 binding model
Hsp90 Nuclear Binding Domain (NBD) (Candida albicans (strain SC5314 / ATCC MYA-2876) (Yeast), UniProt P46598), sequence (P46598 1-218 limits assumed): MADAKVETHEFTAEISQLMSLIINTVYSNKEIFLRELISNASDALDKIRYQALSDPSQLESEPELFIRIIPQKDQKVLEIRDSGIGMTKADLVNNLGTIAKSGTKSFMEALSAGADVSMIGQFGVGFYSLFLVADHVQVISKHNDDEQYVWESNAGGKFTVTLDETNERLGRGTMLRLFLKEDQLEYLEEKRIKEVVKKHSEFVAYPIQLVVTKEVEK
Outline: (§1)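 Biacore S200 at 25° C; AviTag-biotinylated recombinant Hsp90 NBD captured on streptavidin chip at 2000-2500 RU. Compound dilution series run in HBS-P pH 7.4 with 2% DMSO at 40 μL/min, 60 s association and 600 s dissociation. Sensorgrams fitted to a 1:1 binding model.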

[2] = test system: HepG2 cells; experiment: Mammalian cell toxicity (Cell Titer-Glo); format: cell-based
Method: Mammalian Cell Toxicity. HepG2 cells were seeded overnight at 500 cells/well in 384-well plate, then incubated with compounds (10-point concentration titration) for 48 h. Cell Titer-Glo® reagent ([…]) was added to each well and after 10-minute incubation at room temperature the luminescent signal was measured using an Envision plate reader (Perkin Elmer).

[3] = biological target: Hsp90 Nuclear Binding Domain (NBD) (Aspergillus fumigatus, UniProt P40292); experiment: Surface Plasmon Resonance (SPR) binding, A. fumigatus Hsp90 NBD; conditions: biotinylated Hsp90 NBD on streptavidin chip, 25° C., 1:1 binding model; NB undefined
Hsp90 Nuclear Binding Domain (NBD) (Aspergillus fumigatus, UniProt P40292), sequence (P40292 whole entry, looked up, the tested form may be a part): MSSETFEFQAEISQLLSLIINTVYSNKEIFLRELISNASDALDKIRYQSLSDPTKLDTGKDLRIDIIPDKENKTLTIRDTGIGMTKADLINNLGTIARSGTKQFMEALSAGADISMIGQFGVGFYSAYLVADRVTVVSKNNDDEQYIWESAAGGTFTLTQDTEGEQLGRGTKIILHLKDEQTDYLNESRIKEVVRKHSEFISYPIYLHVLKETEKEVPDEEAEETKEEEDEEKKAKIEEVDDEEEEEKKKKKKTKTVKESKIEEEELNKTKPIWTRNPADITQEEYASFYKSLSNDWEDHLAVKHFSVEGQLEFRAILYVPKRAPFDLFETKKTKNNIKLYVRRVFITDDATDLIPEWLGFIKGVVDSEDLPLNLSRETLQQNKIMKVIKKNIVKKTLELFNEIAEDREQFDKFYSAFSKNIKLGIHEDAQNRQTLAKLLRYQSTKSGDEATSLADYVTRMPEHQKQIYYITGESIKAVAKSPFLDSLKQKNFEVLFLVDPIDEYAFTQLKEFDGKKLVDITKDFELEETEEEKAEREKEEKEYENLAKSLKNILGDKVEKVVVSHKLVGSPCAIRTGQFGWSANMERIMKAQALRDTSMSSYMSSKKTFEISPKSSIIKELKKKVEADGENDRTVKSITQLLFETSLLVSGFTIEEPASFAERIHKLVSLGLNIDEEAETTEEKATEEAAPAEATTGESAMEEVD
Outline: as §1

[4] = test system: CaCl2; experiment: Antifungal sensitivity testing (broth microdilution MIC); format: cell-based; conditions: 96-well broth microdilution
Outline: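 Broth microdilution MIC per a modified published protocol; compounds dissolved in DMSO, fluconazole in water; duplicates in at least two independent experiments. Fungicidal activity checked by spotting MIC-plate cultures onto YPD agar, read after 24 h at 30° C.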

Structure (SMILES) | Kd [1] | HepG2 MIC50 ([2]; Table 6, 48 h incubation) | Kd [3] | MIC50 ([4]; Table 4) | MIC50 ([4]; Table 6) | HepG2 MIC50 ([2]; Table 5, 48 h incubation)
COC(=O)c1c(C(=O)NC2CCN(CC(O)(Cn3cncn3)c3ccc(F)cc3F)CC2)sc2nc(N)c(=O)n(-c3ccc4c(c3)N(c3ccccc3)CCO4)c12 (centres unmarked) [Compound I-55, methyl 3-amino-6-((1-(2-(2,4-difluorophenyl)-2-hydroxy-3-(1H-1,2,4-triazol-1-yl)propyl)piperidin-4-yl)carbamoyl)-2-oxo-1-(4-phenyl-3,4-dihydro-2H-benzo[b][1,4]oxazin-6-yl)-1,2-dihydrothieno[2,3-b]pyrazine-7-carboxylate] | 318 nM | >10 µM | 314 nM | 9 µM (≈ 7.18 µg/mL) | 9 µM (≈ 7.18 µg/mL) | 
CC(O)c1c(C(=O)NC2CCN(CC(O)(Cn3cncn3)c3ccc(F)cc3F)CC2)sc2nc(N)c(=O)n(-c3ccc4ccn(-c5ccccc5)c4c3)c12 (centres unmarked) [Compound I-56, 3-amino-N-(1-(2-(2,4-difluorophenyl)-2-hydroxy-3-(1H-1,2,4-triazol-1-yl)propyl)piperidin-4-yl)-7-(1-hydroxyethyl)-2-oxo-1-(1-phenyl-1H-indol-6-yl)-1,2-dihydrothieno[2,3-b]pyrazine-6-carboxamide] | 64.6 nM | >10 µM | 229 nM | 3 µM (≈ 2.3 µg/mL) | 3 µM (≈ 2.3 µg/mL) | 
Nc1nc2sc(CNC3CCN(C[C@@](O)(Cn4cncn4)c4ccc(F)cc4F)CC3)cc2n(-c2ccc3c(c2)N(c2ccccc2)CCO3)c1=O [Compound I-62, (R)-3-amino-6-(((1-(2-(2,4-difluorophenyl)-2-hydroxy-3-(1H-1,2,4-triazol-1-yl)propyl)piperidin-4-yl)amino)methyl)-1-(4-phenyl-3,4-dihydro-2H-benzo[b][1,4]oxazin-6-yl)thieno[2,3-b]pyrazin-2(1H)-one] | 234 nM | 10.6 µM | 423 nM | 3 µM (≈ 2.18 µg/mL) | 3 µM (≈ 2.18 µg/mL) | 
Nc1nc2sc(C(=O)NC3CCN(CCCC(O)(Cn4cncn4)c4ccc(F)cc4F)CC3)cc2n(-c2ccc3c(c2)N(c2ccccc2)CCO3)c1=O (centres unmarked) [Compound I-64, 3-amino-N-(1-(4-(2,4-difluorophenyl)-4-hydroxy-5-(1H-1,2,4-triazol-1-yl)pentyl)piperidin-4-yl)-2-oxo-1-(4-phenyl-3,4-dihydro-2H-benzo[b][1,4]oxazin-6-yl)-1,2-dihydrothieno[2,3-b]pyrazine-6-carboxamide] | 0.9 nM | 2 µM | 19.3 nM | 3.12 µM (≈ 2.4 µg/mL) | 3.13 µM (≈ 2.4 µg/mL) | 
Nc1nc2sc(CNCC3CCN(CC(O)(Cn4cncn4)c4ccc(F)cc4F)CC3)cc2n(-c2ccc3c(c2)N(c2ccccc2)CCO3)c1=O (centres unmarked) [Compound I-67, 3-amino-6-((((1-(2-(2,4-difluorophenyl)-2-hydroxy-3-(1H-1,2,4-triazol-1-yl)propyl)piperidin-4-yl)methyl)amino)methyl)-1-(4-phenyl-3,4-dihydro-2H-benzo[b][1,4]oxazin-6-yl)thieno[2,3-b]pyrazin-2(1H)-one] | 402 nM | 4.7 µM | 503 nM | 2.25 µM (≈ 1.66 µg/mL) | 2.25 µM (≈ 1.66 µg/mL) | 
Nc1nc2sc(C(=O)N[C@@H]3CCN(CC[C@@](O)(Cn4cncn4)c4ccc(F)cc4F)C3)cc2n(-c2ccc3c(c2)N(c2ccccc2)CCO3)c1=O [Compound I-70, 3-amino-N-((R)-1-((S)-3-(2,4-difluorophenyl)-3-hydroxy-4-(1H-1,2,4-triazol-1-yl)butyl)pyrrolidin-3-yl)-2-oxo-1-(4-phenyl-3,4-dihydro-2H-benzo[b][1,4]oxazin-6-yl)-1,2-dihydrothieno[2,3-b]pyrazine-6-carboxamide] | 0.3 nM | 1.5 µM | 2.9 nM | 5.75 µM (≈ 4.25 µg/mL) | 5.75 µM (≈ 4.25 µg/mL) | 
Nc1nc2sc(CNC3CCN(CCC(O)(Cn4cncn4)c4ccc(F)cc4F)CC3)cc2n(-c2ccc3c(c2)N(c2ccccc2)CCO3)c1=O (centres unmarked) [Compound I-72, 3-amino-6-(((1-(3-(2,4-difluorophenyl)-3-hydroxy-4-(1H-1,2,4-triazol-1-yl)butyl)piperidin-4-yl)amino)methyl)-1-(4-phenyl-3,4-dihydro-2H-benzo[b][1,4]oxazin-6-yl)thieno[2,3-b]pyrazin-2(1H)-one] | 121 nM | 4.6 µM | 197 nM | 7.5 µM (≈ 5.55 µg/mL) | 7.5 µM (≈ 5.55 µg/mL) | 
CC(F)(F)COC(=O)N1Cc2nc(N)nc(-c3c(Cl)cc(Cl)cc3OCCC(O)(Cn3cncn3)c3ccc(F)cc3F)c2C1 (centres unmarked) [Compound I-115, 2,2-difluoropropyl-2-amino-4-(2,4-dichloro-6-(3-(2,4-difluorophenyl)-3-hydroxy-4-(1H-1,2,4-triazol-1-yl)butoxy)phenyl)-5,7-dihydro-6H-pyrrolo[3,4-d]pyrimidine-6-carboxylate] | 1200 nM | >20 µM | 1170 nM | 6.5 µM (≈ 4.36 µg/mL) | 6.5 µM (≈ 4.36 µg/mL) | 
Nc1nc2sc(CNC3CCN(CCCCCC(O)(Cn4cncn4)c4ccc(F)cc4F)CC3)cc2n(-c2ccc3c(c2)N(c2ccccc2)CCO3)c1=O (centres unmarked) [Compound I-118, 3-amino-6-(((1-(6-(2,4-difluorophenyl)-6-hydroxy-7-(1H-1,2,4-triazol-1-yl)heptyl)piperidin-4-yl)amino)methyl)-1-(4-phenyl-3,4-dihydro-2H-benzo[b][1,4]oxazin-6-yl)thieno[2,3-b]pyrazin-2(1H)-one] | 191 nM | 3 µM | 406 nM | 2 µM (≈ 1.56 µg/mL) | 2 µM (≈ 1.56 µg/mL) | 3 µM
Nc1nc2sc(CNCC3CCN(C[C@@](O)(Cn4cncn4)c4ccc(F)cc4F)CC3)cc2n(-c2ccc3c(c2)N(c2ccccc2)CCO3)c1=O [Compound I-122, (R)-3-amino-6-((((1-(2-(2,4-difluorophenyl)-2-hydroxy-3-(1H-1,2,4-triazol-1-yl)propyl)piperidin-4-yl)methyl)amino)methyl)-1-(4-phenyl-3,4-dihydro-2H-benzo[b][1,4]oxazin-6-yl)thieno[2,3-b]pyrazin-2(1H)-one] | 1630 nM | 14.3 µM | 1900 nM | 6.5 µM (≈ 4.81 µg/mL) | 6.5 µM (≈ 4.81 µg/mL) | 
Nc1nc2sc(CN[C@H]3CCCN(C[C@](O)(Cn4cncn4)c4ccc(F)cc4F)C3)cc2n(-c2ccc3c(c2)N(c2ccccc2)CCO3)c1=O [Compound I-130, 3-amino-6-((((S)-1-((S)-2-(2,4-difluorophenyl)-2-hydroxy-3-(1H-1,2,4-triazol-1-yl)propyl)piperidin-3-yl)amino)methyl)-1-(4-phenyl-3,4-dihydro-2H-benzo[b][1,4]oxazin-6-yl)thieno[2,3-b]pyrazin-2(1H)-one] | 1580 nM | >20 µM | 2190 nM | 1.75 µM (≈ 1.27 µg/mL) | 1.75 µM (≈ 1.27 µg/mL) | >20 µM
Nc1nc2sc(CNC3CCN(CC[C@@](O)(Cn4cncn4)c4ccc(F)cc4F)CC3)cc2n(-c2ccc3c(c2)N(c2ccccc2)CCO3)c1=O [Compound I-133, (S)-3-amino-6-(((1-(3-(2,4-difluorophenyl)-3-hydroxy-4-(1H-1,2,4-triazol-1-yl)butyl)piperidin-4-yl)amino)methyl)-1-(4-phenyl-3,4-dihydro-2H-benzo[b][1,4]oxazin-6-yl)thieno[2,3-b]pyrazin-2(1H)-one] | 300 nM | 16.8 µM | 620 nM | 2.13 µM (≈ 1.58 µg/mL) | 2.13 µM (≈ 1.58 µg/mL) | 
